Test results taken from the supplement of paper PMC6411743.

Sequence of UniProt Q96TA2 (Q96TA2 whole entry): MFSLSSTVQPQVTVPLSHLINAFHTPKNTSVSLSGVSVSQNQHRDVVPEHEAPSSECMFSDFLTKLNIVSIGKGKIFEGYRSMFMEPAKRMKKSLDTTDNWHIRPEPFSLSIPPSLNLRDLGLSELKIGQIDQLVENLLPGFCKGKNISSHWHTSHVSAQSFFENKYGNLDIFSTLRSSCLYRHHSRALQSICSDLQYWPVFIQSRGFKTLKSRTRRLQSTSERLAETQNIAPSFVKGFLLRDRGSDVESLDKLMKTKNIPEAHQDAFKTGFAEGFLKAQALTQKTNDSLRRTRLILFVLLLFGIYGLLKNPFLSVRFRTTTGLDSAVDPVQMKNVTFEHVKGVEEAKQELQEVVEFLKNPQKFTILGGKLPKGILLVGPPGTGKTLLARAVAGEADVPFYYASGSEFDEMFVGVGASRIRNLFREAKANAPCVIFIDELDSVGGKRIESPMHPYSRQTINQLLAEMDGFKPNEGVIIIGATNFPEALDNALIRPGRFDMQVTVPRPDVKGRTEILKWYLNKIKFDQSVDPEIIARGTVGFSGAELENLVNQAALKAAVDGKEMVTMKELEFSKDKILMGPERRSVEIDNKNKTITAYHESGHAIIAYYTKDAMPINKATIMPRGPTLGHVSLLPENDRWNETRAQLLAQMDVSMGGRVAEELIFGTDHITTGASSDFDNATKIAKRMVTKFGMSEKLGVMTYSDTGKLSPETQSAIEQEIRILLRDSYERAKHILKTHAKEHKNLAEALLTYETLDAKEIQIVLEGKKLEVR
Sequence of UniProt P62318 (P62318 whole entry): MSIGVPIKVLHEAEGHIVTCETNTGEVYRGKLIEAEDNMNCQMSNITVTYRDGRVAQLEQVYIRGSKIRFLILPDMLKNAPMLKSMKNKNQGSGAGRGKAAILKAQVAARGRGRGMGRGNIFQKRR
Sequence of UniProt Q99460 (Q99460 whole entry): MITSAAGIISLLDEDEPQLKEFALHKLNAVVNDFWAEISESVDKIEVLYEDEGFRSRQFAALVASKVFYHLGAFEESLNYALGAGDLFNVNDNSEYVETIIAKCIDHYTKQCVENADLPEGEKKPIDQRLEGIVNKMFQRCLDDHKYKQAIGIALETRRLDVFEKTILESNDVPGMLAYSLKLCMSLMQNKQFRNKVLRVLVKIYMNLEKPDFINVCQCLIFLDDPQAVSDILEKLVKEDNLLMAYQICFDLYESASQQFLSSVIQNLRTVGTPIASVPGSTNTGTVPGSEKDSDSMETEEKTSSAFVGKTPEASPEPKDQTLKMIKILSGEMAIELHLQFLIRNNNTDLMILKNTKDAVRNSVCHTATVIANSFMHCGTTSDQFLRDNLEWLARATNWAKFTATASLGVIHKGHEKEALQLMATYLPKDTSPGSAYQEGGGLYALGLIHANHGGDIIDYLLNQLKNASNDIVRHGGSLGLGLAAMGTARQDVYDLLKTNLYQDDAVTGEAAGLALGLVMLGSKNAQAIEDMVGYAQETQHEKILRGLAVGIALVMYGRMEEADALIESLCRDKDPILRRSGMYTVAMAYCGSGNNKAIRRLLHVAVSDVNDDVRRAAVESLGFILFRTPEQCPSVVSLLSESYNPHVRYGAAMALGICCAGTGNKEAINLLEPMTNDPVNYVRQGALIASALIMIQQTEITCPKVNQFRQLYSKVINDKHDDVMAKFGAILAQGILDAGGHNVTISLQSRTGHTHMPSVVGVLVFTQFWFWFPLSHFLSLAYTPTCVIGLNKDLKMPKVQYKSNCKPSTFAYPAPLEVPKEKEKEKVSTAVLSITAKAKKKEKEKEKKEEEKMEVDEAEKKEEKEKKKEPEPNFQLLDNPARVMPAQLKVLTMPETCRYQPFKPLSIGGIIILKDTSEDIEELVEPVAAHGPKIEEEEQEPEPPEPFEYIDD
Sequence of UniProt Q14571 (Q14571 whole entry): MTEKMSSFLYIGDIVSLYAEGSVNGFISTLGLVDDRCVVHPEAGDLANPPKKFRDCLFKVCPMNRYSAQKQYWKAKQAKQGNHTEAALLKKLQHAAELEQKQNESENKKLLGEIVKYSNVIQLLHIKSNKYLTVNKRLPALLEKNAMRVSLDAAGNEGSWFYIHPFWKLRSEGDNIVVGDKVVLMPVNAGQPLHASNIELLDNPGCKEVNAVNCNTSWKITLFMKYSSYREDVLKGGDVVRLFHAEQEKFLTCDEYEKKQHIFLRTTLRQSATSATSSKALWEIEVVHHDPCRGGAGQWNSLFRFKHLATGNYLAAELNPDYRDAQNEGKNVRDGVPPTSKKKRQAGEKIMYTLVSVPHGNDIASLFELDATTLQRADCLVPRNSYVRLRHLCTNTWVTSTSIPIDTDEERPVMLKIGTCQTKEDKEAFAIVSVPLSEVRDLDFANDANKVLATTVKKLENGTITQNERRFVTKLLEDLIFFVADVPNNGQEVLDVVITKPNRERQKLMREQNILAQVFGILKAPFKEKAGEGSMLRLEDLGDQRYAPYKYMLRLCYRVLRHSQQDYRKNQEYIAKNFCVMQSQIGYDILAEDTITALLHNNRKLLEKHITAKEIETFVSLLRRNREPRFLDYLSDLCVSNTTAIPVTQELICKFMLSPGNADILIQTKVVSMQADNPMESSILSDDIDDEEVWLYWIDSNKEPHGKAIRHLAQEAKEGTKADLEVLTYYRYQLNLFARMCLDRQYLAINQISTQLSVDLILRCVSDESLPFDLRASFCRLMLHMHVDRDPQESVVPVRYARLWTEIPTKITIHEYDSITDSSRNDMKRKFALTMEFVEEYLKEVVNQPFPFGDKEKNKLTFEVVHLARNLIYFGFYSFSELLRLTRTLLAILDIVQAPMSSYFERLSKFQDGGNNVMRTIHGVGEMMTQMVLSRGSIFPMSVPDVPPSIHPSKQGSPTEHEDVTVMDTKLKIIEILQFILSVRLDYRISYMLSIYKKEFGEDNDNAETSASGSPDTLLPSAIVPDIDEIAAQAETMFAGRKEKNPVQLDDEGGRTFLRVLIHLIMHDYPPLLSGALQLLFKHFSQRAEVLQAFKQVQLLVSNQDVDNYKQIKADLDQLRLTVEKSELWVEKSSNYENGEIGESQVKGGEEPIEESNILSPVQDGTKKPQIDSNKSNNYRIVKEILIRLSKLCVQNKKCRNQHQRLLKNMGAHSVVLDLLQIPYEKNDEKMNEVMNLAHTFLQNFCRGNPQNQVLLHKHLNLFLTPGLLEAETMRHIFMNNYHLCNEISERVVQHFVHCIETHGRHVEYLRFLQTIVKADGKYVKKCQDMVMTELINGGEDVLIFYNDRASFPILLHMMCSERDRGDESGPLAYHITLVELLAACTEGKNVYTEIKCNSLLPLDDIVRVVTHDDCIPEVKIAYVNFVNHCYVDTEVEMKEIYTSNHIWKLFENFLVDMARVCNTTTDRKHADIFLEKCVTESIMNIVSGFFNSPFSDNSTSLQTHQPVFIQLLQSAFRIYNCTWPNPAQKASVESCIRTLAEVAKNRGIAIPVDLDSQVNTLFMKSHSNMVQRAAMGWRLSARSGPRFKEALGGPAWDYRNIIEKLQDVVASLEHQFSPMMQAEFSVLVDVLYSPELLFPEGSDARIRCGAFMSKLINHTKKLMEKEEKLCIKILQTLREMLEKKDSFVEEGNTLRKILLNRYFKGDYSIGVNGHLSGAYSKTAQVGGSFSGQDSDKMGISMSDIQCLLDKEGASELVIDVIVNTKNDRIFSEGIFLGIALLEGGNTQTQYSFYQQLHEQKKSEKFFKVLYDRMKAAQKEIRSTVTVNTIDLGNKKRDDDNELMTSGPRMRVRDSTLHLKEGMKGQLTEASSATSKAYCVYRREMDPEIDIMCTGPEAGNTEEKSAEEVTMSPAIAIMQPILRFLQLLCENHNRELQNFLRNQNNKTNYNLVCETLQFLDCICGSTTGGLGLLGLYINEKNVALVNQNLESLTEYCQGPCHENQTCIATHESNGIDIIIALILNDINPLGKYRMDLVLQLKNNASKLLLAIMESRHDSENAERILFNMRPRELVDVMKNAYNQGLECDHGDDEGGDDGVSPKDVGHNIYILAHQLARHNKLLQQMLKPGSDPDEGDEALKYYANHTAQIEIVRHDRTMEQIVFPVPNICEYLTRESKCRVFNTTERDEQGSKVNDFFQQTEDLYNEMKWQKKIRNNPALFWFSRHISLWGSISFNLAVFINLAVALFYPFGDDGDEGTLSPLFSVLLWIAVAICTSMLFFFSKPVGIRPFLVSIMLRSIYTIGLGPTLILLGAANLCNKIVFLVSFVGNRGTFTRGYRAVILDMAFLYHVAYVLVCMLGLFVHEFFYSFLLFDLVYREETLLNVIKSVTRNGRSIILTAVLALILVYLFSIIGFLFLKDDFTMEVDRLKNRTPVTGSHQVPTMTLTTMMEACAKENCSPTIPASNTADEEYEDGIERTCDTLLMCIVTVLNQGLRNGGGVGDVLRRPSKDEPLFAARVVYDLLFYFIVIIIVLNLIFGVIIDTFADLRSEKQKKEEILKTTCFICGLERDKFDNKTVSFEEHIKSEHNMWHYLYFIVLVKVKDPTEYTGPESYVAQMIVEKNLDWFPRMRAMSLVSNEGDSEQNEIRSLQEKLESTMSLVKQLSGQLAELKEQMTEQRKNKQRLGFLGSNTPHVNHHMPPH
Sequence of UniProt P50583 (P50583 whole entry): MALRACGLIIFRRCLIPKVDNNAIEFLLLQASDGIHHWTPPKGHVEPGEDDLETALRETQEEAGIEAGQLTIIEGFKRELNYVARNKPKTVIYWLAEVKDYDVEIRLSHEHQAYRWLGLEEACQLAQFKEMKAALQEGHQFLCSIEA
Sequence of UniProt Q9UNI6 (Q9UNI6 whole entry): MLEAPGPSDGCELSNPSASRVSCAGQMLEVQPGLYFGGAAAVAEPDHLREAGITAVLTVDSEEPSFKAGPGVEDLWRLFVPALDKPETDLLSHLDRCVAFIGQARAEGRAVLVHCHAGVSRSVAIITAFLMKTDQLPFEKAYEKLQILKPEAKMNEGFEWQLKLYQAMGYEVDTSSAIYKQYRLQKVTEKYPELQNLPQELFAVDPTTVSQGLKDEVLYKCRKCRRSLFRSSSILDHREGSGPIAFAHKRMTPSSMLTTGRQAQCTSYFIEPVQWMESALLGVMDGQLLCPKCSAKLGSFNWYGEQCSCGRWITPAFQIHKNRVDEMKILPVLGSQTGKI

These targets were tested with Nc1ncnc2c1ncn2[C@@H]1O[C@H](COP(=O)(O)OP(=O)(O)OP(=O)(O)O)[C@@H](O)[C@H]1O [adenosine triphosphate] (assay: pEC50 of ATP-induced change in protein thermal stability (2D-TPP)).
Description: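 2D thermal proteome profiling in mechanically disrupted Jurkat crude lysate. Lysate was treated 10 min at room temperature with Na-ATP (0, 0.005, 0.05, 0.5, 2 mM), heated to 12 temperatures (42-63.9 °C) for 3 min, and soluble protein was quantified by TMT10 LC-MS/MS. pEC50 is the median over replicates of dose-response fits at the lowest temperature showing a fold change of at least 1.5 (FDR-controlled hits).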
With “ETFA (effect direction: stabilized) (UniProt P13804)” the pEC50 was less than 2.7.
“XYLB (effect direction: stabilized) (UniProt O75191)” showed a pEC50 of 3.04.
“UniProt Q8WYJ6 (effect direction: stabilized)” was tested, and the pEC50 was less than 2.7.
“TSEN34 (effect direction: stabilized) (UniProt Q9BSV6)” was tested, and the pEC50 was less than 2.7.
In the case of “HSD17B10 (effect direction: stabilized) (UniProt Q99714)”, the pEC50 is reported as 3.24.
Target “GTF2B (effect direction: stabilized) (UniProt Q00403)” has a pEC50 of 3.26.
For “ST13 (effect direction: stabilized) (UniProt P50502)”, the pEC50 was 3.1.
For “ITPR2 (effect direction: stabilized) (UniProt Q14571)”, the pEC50 was 3.28.
With “RASSF5 (effect direction: stabilized) (UniProt Q8WWW0)” the pEC50 was 3.13.
“HEXA (effect direction: stabilized) (UniProt P06865)” was tested, and the pEC50 was 3.22.
“MAPRE1 (effect direction: stabilized) (UniProt Q15691)” was tested, and the pEC50 was less than 2.7.
For “TRIM21 (effect direction: stabilized) (UniProt P19474)”, the pEC50 was 2.77.
“TRIM28 (effect direction: stabilized) (UniProt Q13263)” was tested, and the pEC50 was less than 2.7.
“GSTO1 (effect direction: stabilized) (UniProt P78417)” gave a pEC50 of less than 2.7.
“UniProt Q9NQ88 (effect direction: stabilized)” was tested, and the pEC50 was 3.46.
For “NPM1 (effect direction: stabilized) (UniProt P06748)”, the pEC50 was 2.88.
“ENO1 (effect direction: destabilized) (UniProt P06733)” was tested, and the pEC50 was less than 2.7.
Work on “RPL18 (effect direction: destabilized) (UniProt Q07020)” yielded a pEC50 of less than 2.7.
“PRKRIP1 (effect direction: destabilized) (UniProt Q9H875)” showed a pEC50 of 2.81.
“HLTF (effect direction: stabilized) (UniProt Q14527)” showed a pEC50 of 4.11.
Work on “ASPSCR1 (effect direction: stabilized) (UniProt Q9BZE9)” yielded a pEC50 of 3.92.
In the case of “EIF4G1 (effect direction: stabilized) (UniProt Q04637)”, the pEC50 is reported as 2.71.
Work on “UniProt Q9Y2H1 (effect direction: stabilized)” yielded a pEC50 of 3.71.
In the case of “SPATA5 (effect direction: stabilized) (UniProt Q8NB90)”, the pEC50 is reported as 2.96.
Target “UniProt P62841 (effect direction: destabilized)” has a pEC50 of 2.99.
With “GART (effect direction: stabilized) (UniProt P22102)” the pEC50 was 4.88.
“PLEKHF2 (effect direction: stabilized) (UniProt Q9H8W4)” was tested, and the pEC50 was 3.17.
“XPNPEP1 (effect direction: stabilized) (UniProt Q9NQW7)” showed a pEC50 of 2.77.
Work on “RPS10 (effect direction: destabilized) (UniProt P46783)” yielded a pEC50 of less than 2.7.
Target “PPP2R1A (effect direction: stabilized) (UniProt P30153)” has a pEC50 of less than 2.7.
“KLC1 (effect direction: stabilized) (UniProt Q07866)” was tested, and the pEC50 was 3.95.
Target “KPNB1 (effect direction: stabilized) (UniProt Q14974)” has a pEC50 of 2.96.
With “PDCD5 (effect direction: destabilized) (UniProt O14737)” the pEC50 was 3.52.
With “UniProt P25098 (effect direction: stabilized)” the pEC50 was 3.38.
Target “GSN (effect direction: stabilized) (UniProt P06396)” has a pEC50 of 2.94.
With “HIST1H1C (effect direction: destabilized) (UniProt P16403)” the pEC50 was 4.05.
“PANK2 (effect direction: stabilized) (UniProt Q9BZ23)” gave a pEC50 of 3.02.
With “UniProt Q92918 (effect direction: stabilized)” the pEC50 was 3.83.
With “DUSP12 (effect direction: stabilized) (UniProt Q9UNI6)” the pEC50 was less than 2.7.
In the case of “CDKAL1 (effect direction: destabilized) (UniProt Q5VV42)”, the pEC50 is reported as 2.9.
Target “IMPA2 (effect direction: destabilized) (UniProt O14732)” has a pEC50 of less than 2.7.
With “MOB2 (effect direction: stabilized) (UniProt Q70IA6)” the pEC50 was 3.21.
“PELO (effect direction: stabilized) (UniProt Q9BRX2)” gave a pEC50 of 3.17.
For “TPP1 (effect direction: stabilized) (UniProt O14773)”, the pEC50 was 3.26.
For “PPM1H (effect direction: destabilized) (UniProt Q9ULR3)”, the pEC50 was less than 2.7.
“RANGAP1 (effect direction: stabilized) (UniProt P46060)” was tested, and the pEC50 was less than 2.7.
“UniProt Q9NQG6 (effect direction: stabilized)” showed a pEC50 of 3.74.
Work on “PSMD5 (effect direction: stabilized) (UniProt Q16401)” yielded a pEC50 of 3.99.
For “PSMD3 (effect direction: stabilized) (UniProt O43242)”, the pEC50 was 4.24.
Target “UniProt P62318 (effect direction: destabilized)” has a pEC50 of less than 2.7.
“PPP3CB (effect direction: destabilized) (UniProt P16298)” gave a pEC50 of 3.06.
For “RAB3GAP2 (effect direction: stabilized) (UniProt Q9H2M9)”, the pEC50 was 5.16.
With “PTBP1 (effect direction: stabilized) (UniProt P26599)” the pEC50 was 3.15.
“MTR (effect direction: stabilized) (UniProt Q99707)” showed a pEC50 of 3.13.
Target “YME1L1 (effect direction: stabilized) (UniProt Q96TA2)” has a pEC50 of 3.54.
“FKBP5 (effect direction: stabilized) (UniProt Q13451)” was tested, and the pEC50 was less than 2.7.
For “PPA1 (effect direction: destabilized) (UniProt Q15181)”, the pEC50 was 2.85.
With “UniProt Q9P289 (effect direction: stabilized)” the pEC50 was 3.21.
For “ISG15 (effect direction: stabilized) (UniProt P05161)”, the pEC50 was 2.74.
“UniProt Q9UBD5 (effect direction: stabilized)” gave a pEC50 of 3.47.
“PPP3CC (effect direction: destabilized) (UniProt P48454)” showed a pEC50 of 2.92.
Work on “UniProt P68400 (effect direction: stabilized)” yielded a pEC50 of 4.09.
With “UniProt P60891 (effect direction: stabilized)” the pEC50 was 3.
“NUDT2 (effect direction: stabilized) (UniProt P50583)” gave a pEC50 of 3.31.
Target “SLC12A2 (effect direction: stabilized) (UniProt P55011)” has a pEC50 of 3.44.
In the case of “UniProt Q15257 (effect direction: stabilized)”, the pEC50 is reported as less than 2.7.
“ROCK1 (effect direction: stabilized) (UniProt Q13464)” gave a pEC50 of 2.77.
In the case of “CAND1 (effect direction: stabilized) (UniProt Q86VP6)”, the pEC50 is reported as 2.95.
With “AMPD3 (effect direction: stabilized) (UniProt Q01432)” the pEC50 was 2.95.
Target “UniProt Q96G23 (effect direction: stabilized)” has a pEC50 of 3.02.
In the case of “EIF2B2 (effect direction: stabilized) (UniProt P49770)”, the pEC50 is reported as 2.83.
“GRAMD4 (effect direction: stabilized) (UniProt Q6IC98)” showed a pEC50 of 3.13.
For “UniProt Q92888 (effect direction: stabilized)”, the pEC50 was less than 2.7.
“UniProt Q7L9L4 (effect direction: stabilized)” gave a pEC50 of 2.98.
Work on “PLEKHA1 (effect direction: stabilized) (UniProt Q9HB21)” yielded a pEC50 of 3.32.
In the case of “PITRM1 (effect direction: stabilized) (UniProt Q5JRX3)”, the pEC50 is reported as 3.09.
“RPSA (effect direction: stabilized) (UniProt P08865)” showed a pEC50 of less than 2.7.
“NAPA (effect direction: destabilized) (UniProt P54920)” gave a pEC50 of 4.56.
“MRPS6 (effect direction: destabilized) (UniProt P82932)” gave a pEC50 of 3.58.
For “RNASEH2C (effect direction: stabilized) (UniProt Q8TDP1)”, the pEC50 was 2.76.
For “PSMD1 (effect direction: stabilized) (UniProt Q99460)”, the pEC50 was 4.35.
“UniProt P62316 (effect direction: destabilized)” was tested, and the pEC50 was less than 2.7.
Work on “UniProt P36507 (effect direction: stabilized)” yielded a pEC50 of 3.55.
“SND1 (effect direction: stabilized) (UniProt Q7KZF4)” showed a pEC50 of 3.22.
Work on “ARID1A (effect direction: stabilized) (UniProt O14497)” yielded a pEC50 of less than 2.7.
“MCM5 (effect direction: stabilized) (UniProt P33992)” was tested, and the pEC50 was 3.59.
Target “CEBPZ (effect direction: destabilized) (UniProt Q03701)” has a pEC50 of 3.06.
In the case of “EEF1D (effect direction: stabilized) (UniProt P29692)”, the pEC50 is reported as less than 2.7.
Target “COPB2 (effect direction: stabilized) (UniProt P35606)” has a pEC50 of less than 2.7.
“UniProt Q86V81 (effect direction: destabilized)” showed a pEC50 of 3.07.
For “NUP188 (effect direction: stabilized) (UniProt Q5SRE5)”, the pEC50 was less than 2.7.
“UniProt P49841 (effect direction: stabilized)” showed a pEC50 of 3.37.
For “PGK1 (effect direction: stabilized) (UniProt P00558)”, the pEC50 was 3.75.
